Measured values from patent US20180002320A1, “USE OF MACROCYCLIC PICOLINAMIDES AS FUNGICIDES” (DOW AGROSCIENCES LLC, priority 2014, published 2018).
Like-named read-outs stand apart in the source and are kept apart here.

Tests used:
Zymoseptoria tritici = experiment: Leaf Blotch of Wheat (SEPTTR) fungicidal activity; type: in vivo; conditions: for pest or weed control at 121.5 g/ha: Low Volume (121.5 g/H); for pest or weed control at 100 µg/mL: High Volume (100 ppm)
Experimental: Technical grades of materials were dissolved in acetone, which were then mixed with nine volumes of H2O containing 110 ppm Triton X-100. The fungicide solutions were applied onto wheat seedlings using an automated booth sprayer to run-off. All sprayed plants were allowed to air dry prior to further handling. All fungicides were evaluated using the aforementioned method for their activity vs. all target diseases, unless stated otherwise. Wheat leaf blotch and brown rust activity were also evaluated using track spray applications, in which case the fungicides were formulated as EC formulations, containing 0.1% Trycol 5941 in the spray solutions. Wheat plants (variety Yuma) were grown from seed in a greenhouse in 50% mineral soil/50% soil-less Metro mix until the first leaf was fully emerged, with 7-10 seedlings per pot. These plants were inoculated with an aqueous spore suspension of Zymoseptoria tritici either prior to or after fungicide treatments. After inoculation the plants were kept in 100% relative humidity (one day in a dark dew chamber followed by two to three days in a lighted dew chamber at 20° C.) to permit spores to germinate and infect the leaf. The plants were then transferred to a greenhouse set at 20° C. for disease to develop. When disease symptoms were fully expressed on the 1st leaves of untreated plants, infection levels were assessed on a scale of 0 to 100 percent disease severity. Percent disease control was calculated using the ratio of disease severity on treated plants relative to untreated plants.

Puccinia triticina = experiment: Wheat Brown Rust (PUCCRT) fungicidal activity; type: in vivo; conditions: for pest or weed control at 121.5 g/ha: Low Volume (121.5 g/H); for pest or weed control at 100 µg/mL: High Volume (100 ppm)
Experimental: Technical grades of materials were dissolved in acetone, which were then mixed with nine volumes of H2O containing 110 ppm Triton X-100. The fungicide solutions were applied onto wheat seedlings using an automated booth sprayer to run-off. All sprayed plants were allowed to air dry prior to further handling. All fungicides were evaluated using the aforementioned method for their activity vs. all target diseases, unless stated otherwise. Wheat leaf blotch and brown rust activity were also evaluated using track spray applications, in which case the fungicides were formulated as EC formulations, containing 0.1% Trycol 5941 in the spray solutions. Wheat plants (variety Yuma) were grown from seed in a greenhouse in 50% mineral soil/50% soil-less Metro mix until the first leaf was fully emerged, with 7-10 seedlings per pot. These plants were inoculated with an aqueous spore suspension of Puccinia triticina either prior to or after fungicide treatments. After inoculation the plants were kept in a dark dew room at 22° C. with 100% relative humidity overnight to permit spores to germinate and infect the leaf. The plants were then transferred to a greenhouse set at 24° C. for disease to develop. Fungicide formulation, application and disease assessment followed the procedures as described in the Example A.

[1] = 24 h, 1 Day Protectant, read-out: SEPTTR 1DP disease control
[2] = 72 h, 3 Day Curative, read-out: SEPTTR 3DC disease control
[3] = 24 h, 1 Day Protectant, read-out: PUCCRT 1DP disease control
[4] = 72 h, 3 Day Curative, read-out: PUCCRT 3DC disease control

Row | SMILES | pest or weed control at 121.5 g/ha (Zymoseptoria tritici; [1]) [%] | pest or weed control at 121.5 g/ha (Zymoseptoria tritici; [2]) [%] | pest or weed control at 121.5 g/ha (Puccinia triticina; [3]) [%] | pest or weed control at 121.5 g/ha (Puccinia triticina; [4]) [%] | pest or weed control at 100 µg/mL (Zymoseptoria tritici; [1]) [%] | pest or weed control at 100 µg/mL (Zymoseptoria tritici; [2]) [%] | pest or weed control at 100 µg/mL (Puccinia triticina; [3]) [%] | pest or weed control at 100 µg/mL (Puccinia triticina; [4]) [%]
1 | COc1ccc(C[C@H]2CCOC[C@H](NC(=O)c3nccc(OC)c3OCOC(=O)C(C)C)C(=O)O[C@@H](C)[C@@H]2Oc2ccccc2)cc1 [Compound 67, ((4-methoxy-2-(((3S,8S,9R,10S)-8-(4-methoxybenzyl)-10-methyl-2-oxo-9-phenoxy-1,5-dioxecan-3-yl)carbamoyl)pyridin-3-yl)oxy)methyl isobutyrate] | > 80 | < 80 | > 80 | < 80 |  |  |  | 
2 | COc1ccc(C[C@H]2CCOC[C@H](NC(=O)c3nccc(OC)c3OC(=O)C(C)C)C(=O)O[C@@H](C)[C@@H]2Oc2ccccc2)cc1 [Compound 68] | < 80 | < 80 | > 80 |  |  |  |  | 
3 | CC[C@H]1CCOC[C@H](NC(=O)c2nccc(OC)c2OCOC(C)=O)C(=O)O[C@@H](C)[C@@H]1Oc1ccccc1 [Compound 69] | > 80 | > 80 | > 80 | > 80 |  |  |  | 
4 | CC[C@H]1CCOC[C@H](NC(=O)c2nccc(OC)c2OCOC(C)=O)C(=O)O[C@@H](C)[C@@H]1OCC(C)C [Compound 70] | > 80 | < 80 | > 80 | > 80 |  |  |  | 
5 | COc1ccnc(C(=O)N[C@H]2COCC[C@H](Cc3ccc(F)cc3)[C@@H](Oc3ccccc3)[C@H](C)OC2=O)c1OC(C)=O [Compound 71] | > 80 | > 80 | > 80 | > 80 |  |  |  | 
6 | COc1ccnc(C(=O)N[C@H]2COCC[C@H](Cc3ccc(F)cc3)[C@@H](Oc3ccccc3)[C@H](C)OC2=O)c1OCOC(C)=O [Compound 72] | > 80 | > 80 | > 80 | > 80 |  |  |  | 
7 | COc1ccnc(C(=O)N[C@H]2COCC[C@H](Cc3ccc(F)cc3)[C@@H](Oc3ccccc3)[C@H](C)OC2=O)c1OCOC(=O)C(C)C [Compound 73] | > 80 | > 80 | > 80 | > 80 |  |  |  | 
8 | COc1ccnc(C(=O)N[C@H]2COCC[C@H](Cc3ccc(F)cc3)[C@@H](OCC3CC3)[C@H](C)OC2=O)c1OCOC(C)=O [Compound 74] | > 80 | < 80 | > 80 | > 80 |  |  |  | 
9 | COc1ccnc(C(=O)N[C@H]2COCC[C@H](Cc3ccc(F)cc3)[C@@H](OC(=O)C(C)C)[C@H](C)OC2=O)c1OC(C)=O [Compound 75] | > 80 | < 80 | > 80 | > 80 |  |  |  | 
10 | COc1ccnc(C(=O)N[C@H]2COCC[C@H](Cc3ccc(F)cc3)[C@@H](OC(=O)C(C)C)[C@H](C)OC2=O)c1OCOC(C)=O [Compound 76] | > 80 | > 80 | > 80 | > 80 |  |  |  | 
11 | COc1ccnc(C(=O)N[C@H]2COCC[C@H](Cc3ccc(F)cc3)[C@@H](OCC3CC3)[C@H](C)OC2=O)c1OC(C)=O [Compound 77] | > 80 | < 80 | > 80 | > 80 |  |  |  | 
12 | CCOCC(=O)OCOc1c(OC)ccnc1C(=O)N[C@H]1COCC[C@H](Cc2ccc(F)cc2)[C@@H](OCC2CC2)[C@H](C)OC1=O [Compound 78] | > 80 | < 80 | > 80 | > 80 |  |  |  | 
13 | CC[C@H]1CCOC[C@H](NC(=O)c2nccc(OC)c2OCOC(C)=O)C(=O)O[C@@H](C)[C@@H]1OC(=O)C1CC1 [Compound 79] | > 80 |  | > 80 | > 80 |  |  |  | 
14 | CC[C@H]1CCOC[C@H](NC(=O)c2nccc(OC)c2OC(C)=O)C(=O)O[C@@H](C)[C@@H]1OC(=O)c1ccccc1 [Compound 80] | > 80 | < 80 | > 80 | > 80 |  |  |  | 
15 | COc1ccnc(C(=O)N[C@H]2COCCC[C@@H](CCC(C)C)[C@H](C)OC2=O)c1O [Compound 112] |  |  |  |  | < 80 | < 80 | < 80 | < 80
